Patent US20050245440A1, “Regulation of a novel colon specific retinol dehydrogenase by apc and cdx2” (University of Utah Research Foundation, priority 2002, published 2005)
Entries after “also recorded” stand apart in the source; their conditions may differ. Where two headings read alike, the source gives them in different places.

Columns and labels:
cdx2 [1] = assay: Northern analysis of cdx2 expression in HT29 cells; assay type: cell-based, human; conditions: after 5-Aza-CdR
Source text: (§1) Cell Culture and Drug Treatments. […] Northern blotting.

[2] = system: RA response genes in HT29 cells; assay: Microarray analysis of RA response gene expression in HT29 cells; assay type: cell-based, human
Source text: (§2) Cell Culture and Drug Treatments.
(§3) Microarray Analysis. Slides were produced using a Generation m Microarray Spotter (Molecular Dynamics). Each microarray contained 4608 minimally redundant cDNAs spotted in duplicate on 3-aminopropyl-trimethoxy silane (Sigma) coated slides and UV crosslinked in a Stratalinker (Stratagene). The cDNA clones on the microarray were obtained from Research Genetics and Genome Systems. […] . Cultures were transferred to a multiscreen 96-well glass fiber filtration plate (Millipore) and growth medium voided. Twenty-five μl of 25 mM Tris-HCl, pH 8; 10 mM EDTA, 50 μl of 0.2N NaOH, 1% SDS and 160 μl of 0.7M potassium acetate, pH 4.8; 5.3M guanidine hydrochloride were added to each well of the glass filtration plate. Cell lysates were drawn through the glass filters under vacuum and filter-bound DNA was washed four times with 200 μl of 80% ethanol. Plasmid DNAs were eluted by centrifugation following the addition of 65 μl of distilled H2O. Samples were collected in a 96-well microtiter dish during centrifugation.
(§4) Generation of microarray probes, microarray hybridizations, and scanning Total RNA was isolated using Trizol reagent (Invitrogen) and poly-A RNA was selected using an Oligotex Kit (Qiagen). […]
(§5) Hybridizations were performed overnight at 42° C. in a humidified chamber. […] Fluorescent intensities were quantified using ArrayVision 4.0 (Imaging Research).

HT29 cells = conditions: found previously (56); cited from earlier work
[3] = system: RA response genes in HCT116 cells; assay: Microarray analysis of RA response gene expression in HCT116 cells; assay type: cell-based, human; conditions: 5 μM 5-Aza-CdR
Source text: as §2, §3, §4, §5

RDH5 [4] = assay: Northern analysis of RDH5 expression in HCT116 cells; assay type: cell-based, human; conditions: 5-Aza-CdR
Source text: as §1

RDHL [5] = assay: Northern analysis of RDHL expression in HT29 cells; assay type: cell-based, human; conditions: 5 μM 5-Aza-CdR, cultured 6 days
Source text: as §1

RDH5 [6] = assay: Northern analysis of RDH5 expression in HT29 cells; conditions: after 5-Aza-CdR treatment
HCT116 cells = conditions: following 5-Aza-CdR treatment; cited from earlier work
colon cancer cells = conditions: cited from earlier work
RDHL [7] = assay: Northern analysis of RDHL in HT29 β-galactosidase-inducible cells; assay type: cell-based, human; conditions: HT29 β-galactosidase-inducible cells (negative control); 100 μM ZnCl2 24 h vs water
Source text: as §1

RDHL [8] = assay: Northern analysis of RDHL in HT29 APC-inducible cells; assay type: cell-based, human; conditions: 100 μM ZnCl2 24 h vs water, normalized to GAPDH
Source text: as §1

cdx2 [9] = assay: Northern analysis of cdx2 in HT29 APC-inducible cells; assay type: cell-based, human; conditions: 100 μM ZnCl2 24 h, data not shown
Source text: as §1

## Nc1ncn([C@H]2C[C@H](O)[C@@H](CO)O2)c(=O)n1 [5-Aza-CdR, 5-aza-2′-deoxycytidine]
cdx2 [1]
  cdx2 expression: induction of cdx2
[2]; 5 μM 5-Aza-CdR 10 days, then 1 μM RA 24 h
  RA responsiveness of RA response genes: conferred RA responsiveness
[2]; 5 μM 5-Aza-CdR on day 0, cultured 10 days, microarray vs PBS/ethanol
  RA response gene expression: enhances
HT29 cells
  differentiation and differentiation markers: stimulates biological aspects of differentiation and the appearance of differentiation markers
[3]
  RA response gene expression: not induced
RDH5 [4]
  RDH5 expression: no effect
RDHL [5]
  RDHL expression: expression of RDHL only after treatment with 5-Aza-CdR; also recorded: re-expressed
RDH5 [6]
  RDH5 levels: slightly increased; also recorded: re-expressed
HCT116 cells
  markers of differentiation: few markers of differentiation

## C[C@]12CC[C@H]3[C@@H](CCC4=CC(=O)CC[C@@]43C)[C@@H]1CC[C@@H]2O [testosterone]
Colon cancer cells; another group (87)
  cell growth of colon cancer cells: increased cell growth
Colon cancer cells; one study (86)
  cell growth of colon cancer cells: failed to affect cell growth

## CC(=O)[C@H]1CC[C@H]2[C@@H]3CCC4=CC(=O)CC[C@]4(C)[C@H]3CC[C@]12C [progesterone]
Colon cancer cells; one study (86)
  cell growth of colon cancer cells: failed to affect cell growth

## [Cl-].[Cl-].[Zn+2] [ZnCl2]
RDHL [7]
  fold RDHL induction: 1.2 fold
RDHL [8]
  fold RDHL induction: 3.2 fold
cdx2 [9]
  cdx2 induction after re-introduction of APC: no cdx2 induction
